Laboratory results: US12642851B2, “Self-assembling nanoparticles” (Barinthus Biotherapeutics North America, Inc., priority 2022, dated 2026)
Like-named read-outs stand apart in the source and are kept apart here.

System: mTOR (phospho-S6, pS6)
Assay: In vitro mTOR inhibition by phospho-S6 (pS6) assay in LPS-stimulated splenocytes
Type: cell-based, C57BL/6 mice
Conditions: for IC50: read-out: Approximate IC50
[1] = half maximal inhibitory concentration of pS6 inhibition in IA/IE+ cells, splenocytes, phospho-S6 assay
[2] = Mus musculus, Splenocyte, half maximal inhibitory concentration of pS6 inhibition in IA/IE+ cells, splenocytes, phospho-S6 assay

Compound	IC50 [1] [nM]	IC50 [2] [nM]	also measured
CO[C@H]1CCOCC(=O)C(=O)N2CCCC[C@H]2C(=O)O[C@H]([C@H](C)C[C@@H]2CC[C@@H](OCCN=[N+]=[N-])[C@H](OC)C2)CC(=O)[C@H](C)/C=C(\C)[C@@H](O)[C@@H](OC)C(=O)[C@@H](C)C[C@H](C)/C=C/C=C/C=C/1C [Compound 109, Everolimus-azide]	–	1	impact on IC50 (pS6) of conversion from Everolimus (splenocytes, pS6 assay): no impact on IC50
Everolimus -N3-DBCO-COOH [Compound 142]	16	–	fold reduction in IC50 potency (pS6) relative to Everolimus (splenocytes, pS6 assay): 16 fold
Torin-1-C3-COOH [Compound 123]	> 500	–	–
CC(C)[C@H](N)C(=O)N[C@@H](CCCNC(N)=O)C(=O)NCCC(=O)N1Cc2ccccc2C#Cc2ccccc21 [Compound 124, Val-Cit-DBCO]	–	150	–
CC(C)[C@H](N)C(=O)N[C@@H](CCCNC(N)=O)C(=O)N1CCN(c2ccc(-n3c(=O)ccc4cnc5ccc(-c6cnc7ccccc7c6)cc5c43)cc2C(F)(F)F)CC1 [Compound 105, Torin-1-ZV]	–	210	pS6 inhibition IC50 relative to Torin-1-piperazine (Compound 98) (splenocytes, pS6 assay): approximately equivalent
CCCCNC(=O)[C@H](CCCNC(N)=O)NC(=O)[C@@H](NC(=O)CO[C@@H]1CC[C@@H](C[C@@H](C)[C@@H]2CC(=O)[C@H](C)/C=C(\C)[C@@H](O)[C@@H](OC)C(=O)[C@H](C)C[C@H](C)/C=C/C=C/C=C(\C)[C@@H](OC)CC3CC[C@@H](C)[C@@](O)(O3)C(=O)C(=O)N3CCCCC3C(=O)O2)C[C@H]1OC)C(C)C (stereo partly drawn) [Compound 141, Everolimus -Val-Cit-nBu]	–	30	fold reduction in IC50 potency (pS6) relative to Everolimus (splenocytes, pS6 assay): 30 fold
CO[C@H]1CCOCC(=O)C(=O)N2CCCC[C@H]2C(=O)O[C@H]([C@H](C)C[C@@H]2CC[C@@H](OCCN)[C@H](OC)C2)CC(=O)[C@H](C)/C=C(\C)[C@@H](O)[C@@H](OC)C(=O)[C@@H](C)C[C@H](C)/C=C/C=C/C=C/1C [Compound 108, Everolimus-amine]	–	10	fold reduction in IC50 potency (pS6) relative to Everolimus (splenocytes, pS6 assay): 10 fold
CO[C@H]1C[C@@H]2CC[C@@H](C)[C@@](O)(O2)C(=O)C(=O)N2CCCC[C@H]2C(=O)O[C@H]([C@H](C)C[C@@H]2CC[C@@H](OCCO)[C@H](OC)C2)CC(=O)[C@H](C)/C=C(\C)[C@@H](O)[C@@H](OC)C(=O)[C@H](C)C[C@H](C)/C=C/C=C/C=C/1C [Everolimus]	–	–	IC50 (Mus musculus, Splenocyte): 1 nM

Second part, led by results:

IC50 [1] [nM]	IC50 [2] [nM]	Compound	also measured
185	–	OH-PEG24-VZQLQPFPQPELPYPQPQLPYPQPQPFR-SPVZK(DBCO-N3)-Everolimus [Compound 145]	–
74	–	OH-PEG24-VZQLQPFPQPELPYPQPQLPYPQPQPFR-SPVZX(DBCO-Ahx-ZV-Everolimus) [Compound 146]	pS6 IC50 compared to matched peptide antigen conjugates using an amide based linkage (Compound 143 and 145) (splenocytes, pS6 assay): more potent IC50
13	–	OH-PEG24-VZQLQPFPQPELPYPQPQLPYPQPQPFR-SPVZ(X-DBCO)-Ahx-WWK(ZV-Everolimus)WW [Compound 144]	pS6 IC50 compared to matched peptide antigen conjugates using an amide based linkage (Compound 143 and 145) (splenocytes, pS6 assay): more potent IC50
–	1	CO[C@H]1C[C@@H]2CC[C@@H](C)[C@@](O)(O2)C(=O)C(=O)N2CCCC[C@H]2C(=O)O[C@H]([C@H](C)C[C@@H]2CC[C@@H](O)[C@H](OC)C2)CC(=O)[C@H](C)/C=C(\C)[C@@H](O)[C@@H](OC)C(=O)[C@H](C)C[C@H](C)/C=C/C=C/C=C/1C [Rapamycin]	–
150	–	OH-PEG24-VZQLQPFPQPELPYPQPQLPYPQPQPFR-SPVZ-(X DBCO)-Ahx-WWK(Everolimus)WW [Compound 143]	–
